Source: ChEMBL document CHEMBL3832036, “Goodman and Gilman Ed. 12 | The Pharmaceutical Basis of Therapeutics| Table AII-I: Pharmacokinetic Data” (2011)

What was measured:
Homo sapiens [1] = assay: Pharmacokinetic parameters for diffferent drugs or their active metabolite, following single oral or intravenous (IV) administration to subjects of different health conditions.; type: ADME, organism-based; parameters: dose 50 mg, dose 10 mg, route oral; settings: in vivo
Homo sapiens [2] = assay: Pharmacokinetic parameters for different drugs, or their active metabolite following multiple oral or intravenous administration to subjects of varying health conditions.; type: ADME, organism-based; parameters: dose 30 mg, dose 135 mg, route oral; settings: in vivo
[3] = po, dosed compound id 66, dosed compound name CHLORTHALIDONE, regimen Single dose, tissue Plasma
[4] = po, dosed compound id 69, dosed compound name IRBESARTAN, gender male, regimen Single dose, tissue Plasma
[5] = iv, dosed compound id 67, dosed compound name AZATHIOPRINE, regimen Single dose, tissue Plasma
[6] = po, dose 10 mg, dosed compound id 63, dosed compound name BACLOFEN, gender male, regimen Single dose, tissue Plasma
[7] = po, dosed compound id 63, dosed compound name BACLOFEN, gender male, regimen Single dose, tissue Plasma

Structure (SMILES): NS(=O)(=O)c1cc(C2(O)NC(=O)c3ccccc32)ccc1Cl (configuration not stated) [CHLORTHALIDONE]
- Excretion (Homo sapiens [1]; po, at 50 mg, dosed compound id 66, dosed compound name CHLORTHALIDONE, regimen Single dose, tissue Urine): 65%
- Tmax (Homo sapiens [1]; po, dose 50 mg, dosed compound id 66, dosed compound name CHLORTHALIDONE, regimen Single dose, tissue Plasma): 13.8 h
- t1/2 (Homo sapiens [1]; po, dosed compound id 66, dosed compound name CHLORTHALIDONE, regimen Single dose, tissue Blood): 47 h
- CL (Homo sapiens [1]; [3]): 0.04 mL/min/kg
- Cmax (Homo sapiens [1]; [3]): 3700 ng/mL
- F (Homo sapiens [1]; [3]): 64%
- Vd (Homo sapiens [1]; [3]): 0.14 L/kg

Structure (SMILES): CCCCC1=NC2(CCCC2)C(=O)N1Cc1ccc(-c2ccccc2-c2nnn[nH]2)cc1 [IRBESARTAN]
- Tmax (Homo sapiens [1]; po, dose 50 mg, dosed compound id 69, dosed compound name IRBESARTAN, gender male, regimen Single dose, tissue Plasma): 1.2 h
- CL (Homo sapiens [1]; [4]): 2.12 mL/min/kg
- Cmax (Homo sapiens [1]; [4]): 1300 ng/mL
- Vd (Homo sapiens [1]; [4]): 2.9 L/kg
- bioavailability (Homo sapiens [1]; [4]): 60 to 80%
- t1/2 (Homo sapiens [1]; [4]): 13 h
- Excretion (Homo sapiens [1]; po, dosed compound id 69, dosed compound name IRBESARTAN, gender male, regimen Single dose, tissue Urine): 2.2%

Structure (SMILES): Sc1ncnc2nc[nH]c12 [MERCAPTOPURINE ANHYDROUS]
- F (Homo sapiens [1]; po, dosed compound id 621, dosed compound name AZATHIOPRINE, regimen Single dose, tissue Plasma): 60%
- Tmax (Homo sapiens [2]; dose 135 mg, dosed compound id 621, dosed compound name AZATHIOPRINE, regimen Once daily, route oral, tissue Plasma): 1 to 2 h
- Cmax (Homo sapiens [2]; dosed compound id 621, dosed compound name AZATHIOPRINE, regimen Once daily, tissue Plasma): 20 to 90 ng/mL

Structure (SMILES): Cn1cnc([N+](=O)[O-])c1Sc1ncnc2nc[nH]c12 [AZATHIOPRINE]
- CL (Homo sapiens [1]; [5]): 57 mL/min/kg
- Vd (Homo sapiens [1]; [5]): 0.81 L/kg
- t1/2 (Homo sapiens [1]; [5]): 0.16 h

Structure (SMILES): NCC(CC(=O)O)c1ccc(Cl)cc1 (configuration not stated) [BACLOFEN]
- Vd (Homo sapiens [1]; other, dosed compound id 63, dosed compound name BACLOFEN, gender male, regimen Single dose, route intestinal infusion, tissue Plasma): 0.81 L/kg
- CL (Homo sapiens [1]; other, dosed compound id 63, dosed compound name BACLOFEN, gender male, regimen Single dose, route intestinal infusion, tissue Urine): 2.72 mL/min/kg
- Tmax (Homo sapiens [1]; [6]): 1 h
- t1/2 (Homo sapiens [1]; [6]): 3.75 h
- Cmax (Homo sapiens [1]; [7]): 160 ng/mL
- F (Homo sapiens [1]; [7]): 70%

Structure (SMILES): C[C@]12C=CC(=O)C=C1CC[C@@H]1[C@@H]2[C@@H](O)C[C@@]2(C)[C@H]1CC[C@]2(O)C(=O)CO [PREDNISOLONE]
- CL (Homo sapiens [1]; po): 1 mL/min/kg
- Excretion (Homo sapiens [1]; po): 26%
- Vd (Homo sapiens [1]; po): 0.42 L/kg
- t1/2 (Homo sapiens [1]; po): 2.2 h
- Cmax (Homo sapiens [2]): 458 ng/mL
- Tmax (Homo sapiens [2]): 1.5 h
